Source: patent US12171230B2, “Herbicidal compositions” (Bayer Aktiengesellschaft, priority 2018, dated 2024)
Values joined by “and” are separate entries in the source; they are usually repeats but may differ in a detail not shown here. Identical values can stand only once.

What was measured:
Format in all cases: in vivo
Poa annua = assay: Post-emergence herbicidal action against Poa annua; conditions: for Herbicidal action in [%] 14 DAT against Poa annua L. / Herbicidal action in [%] 28 DAT against Poa annua L.: post-emergence
Method in brief: (§1)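 Greenhouse pot test: three-leaf-stage plants, three weeks from sowing, sprayed with spray-powder or emulsion-concentrate formulations at several dosages (300 to 800 l/ha water). Efficacy rated visually against untreated plants some 3 to 4 weeks later, with Colby formula giving expected combination effect.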

Galium aparine = assay: Post-emergence herbicidal action against Galium aparine
Method in brief: as §1

Chenopodium album = assay: Post-emergence herbicidal action against Chenopodium album
Description: When the observed efficacies exceed the formal sum total of the values of the tests with individual applications, they also exceed the expected value according to Colby, which is calculated using the formula below and is likewise regarded as an indication of synergism (cf. S. R. Colby; in Weeds 15 (1967) p. 20 to 22): E^C=A+B−([…])
Here: • A=efficacy of the active compound (A) in % at an application rate of a g a.i./ha; • B=efficacy of the active compound (B) in % at an application rate of b g a.i./ha; • E^C=expected value of the effect of the combination (A)+(B) in % at the combined application rate a+b g a.i./ha.
Seeds or rhizome pieces of mono- and dicotyledonous weeds are placed in sandy loam in pots, covered with soil and grown in a greenhouse under good growth conditions (temperature, air humidity, water supply). Three weeks after sowing, the test plants were treated at the three-leaf stage with the compositions according to the invention. The compositions according to the invention formulated as spray powders or as emulsion concentrates were sprayed onto the green plant parts in various dosages with an application rate of 300 to 800 l/ha of water (equivalent). After the test plants have been left to stand in the greenhouse under optimal growth conditions for about 3 to 4 weeks, the action of the preparations is scored visually in comparison to untreated controls. The compositions according to the invention also have good post-emergence herbicidal activity against a broad spectrum of economically important gramineous and broadleaf weeds.

Echinochloa crus-galli = assay: Post-emergence herbicidal action against Echinochloa crus-galli; conditions: 100 g a.i./ ha, post-emergence
Method in brief: as §1

Lolium rigidum = assay: Post-emergence herbicidal action against Lolium rigidum
Method in brief: (§2)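 Assessment time was recorded as days after application. Activity for mixtures was set against E^C, the Colby expected value, and against E^A, the total of the effects from each component applied alone; application rates were in g of active substance per hectare.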

[1] = tested on: Lolium rigidum (resistant biotype); assay: Post-emergence herbicidal action against Lolium rigidum (resistant biotype)
Method in brief: as §2

Kochia scoparia = assay: Post-emergence herbicidal action against Kochia scoparia; conditions: 1.7 g of a.i./ha
Text: (§3) The following abbreviations are used in the description and the tables that follow: • g of a.i./ha=grams of active substance (active ingredient) (=100% active compound) per hectare; • The sum total of the effects of the individual applications is reported under E^A; • expected values according to Colby are each reported under E^C.
(§4) The rating period is reported in days after application (DAT).

Alopecurus myosuroides = assay: Post-emergence herbicidal action against Alopecurus myosuroides
Method in brief: as §2

Digitaria horizontalis = assay: Post-emergence herbicidal action against Digitaria horizontalis
Text: as §3, §4

Veronica hederifolia = assay: Post-emergence herbicidal action against Veronica hederifolia
Text: as §3, §4

Brachiaria decumbens = assay: Post-emergence herbicidal action against Brachiaria decumbens; conditions: g of a.i./ha: 200, 100, 100 + 200
Text: as §3, §4

Abutilon theophrasti = assay: Post-emergence herbicidal action against Abutilon theophrasti
Text: as §3, §4

[2] = (Z61) post-emergence, g of a.i./ha: 1, 270, 90, 30, 1 + 270, 1 + 90, 1 + 30

## C=C[C@]1(C(=O)N[C@H]2CO[C@@H](C(=O)OC)C2)CC(c2cc(F)cc(F)c2)=NO1 (relative stereo) [Compound A3, methyl rel-(2R,4R)-4-[[(5S)-3-(3,5-difluorophenyl)-5-vinyl-4H-isoxazole-5-carbonyl]amino]tetrahydrofuran-2-carboxylate]
Poa annua; 28 DAT, 4 g a.i./ha
  Herbicidal action: 80%
Poa annua; 28 DAT, 16 g a.i./ha
  Herbicidal action: 85%
Poa annua; 28 DAT, 16 g of a.i./ha
  Herbicidal action against Poa annua L.: 40%
  Herbicidal action in [%] 28 DAT against Poa annua L.: 85%
Poa annua; 28 DAT, 50 g a.i./ha
  Herbicidal action: 0%
Poa annua; 1 g of a.i./ha
  Herbicidal action in [%] 14 DAT against Poa annua L.: 50%
Poa annua; 4 g of a.i./ha
  Herbicidal action in [%] 14 DAT against Poa annua L.: 85%
Poa annua; 16 g of a.i./ha
  Herbicidal action in [%] 14 DAT against Poa annua L.: 93%
Poa annua; 28 DAT, 1 g of a.i./ha
  Herbicidal action in [%] 28 DAT against Poa annua L.: 20%
Poa annua; 28 DAT, 4 g of a.i./ha
  Herbicidal action in [%] 28 DAT against Poa annua L.: 80%
Galium aparine; 1 g of a.i./ha
  Herbicidal action 14 DAT against Galium aparine: 40%
  Herbicidal action 28 DAT against Galium aparine: 15%
  Herbicidal action in [%] 14 DAT against Galium aparine: 40%
  Herbicidal action in [%] 28 DAT against Galium aparine: 15%
Galium aparine; 4 g of a.i./ha
  Herbicidal action in [%] 28 DAT against Galium aparine: 65%
Galium aparine; 4 g of a.i./ha, post-emergence
  Herbicidal action in [%] 28 DAT against Galium aparine: 70%
Galium aparine; 14 DAT, 1 g of a.i./ha
  Herbicidal action against Galium aparine: 40%
Galium aparine; 16 g of a.i./ha
  Herbicidal action 28 DAT against Galium aparine: 75%
  Herbicidal action in [%] 28 DAT against Galium aparine: 75%
Galium aparine; 16 g of a.i./ha, post-emergence
  Herbicidal action in [%] 28 DAT against Galium aparine: 80%
Galium aparine; 28 DAT, 1 g of a.i./ha
  Herbicidal action against Galium aparine: 15%
Galium aparine; [2]
  Herbicidal action 14 DAT against Galium aparine: 40%
Chenopodium album; 100 g of a.i./ha
  Herbicidal action 27 DAT [%] against Chenopodium album: 85%
Chenopodium album; g of a.i./ha: 180, 100, 100 + 180
  Herbicidal action 27 DAT against Chenopodium album: 85%
Echinochloa crus-galli
  Herbicidal action 37 DAT [%] against Echinochloa crus-galli: 93%
Lolium rigidum; 1 g of a.i./ha
  Herbicidal action 14 DAT against Lolium rigidum: 35%
  Herbicidal action 28 DAT against Lolium rigidum: 15%
  Herbicidal action in [%] 14 DAT against Lolium rigidum: 40%
  Herbicidal action in [%] 28 DAT against Lolium rigidum: 10%
Lolium rigidum; 4 g of a.i./ha
  Herbicidal action 28 DAT against Lolium rigidum: 50%
  Herbicidal action in [%] 14 DAT against Lolium rigidum: 85%
  Herbicidal action in [%] 28 DAT against Lolium rigidum: 70%
Lolium rigidum; [2]
  Herbicidal action 14 DAT against Lolium rigidum: 35%
[1]; 1 g of a.i./ha
  Herbicidal action 14 DAT against Lolium rigidum (resistant biotype): 15% and 30%
  Herbicidal action 28 DAT against Lolium rigidum (resistant biotype): 0%
  Herbicidal action in [%] 14 DAT against Lolium rigidum (resistant biotype): 30%
  Herbicidal action in [%] 28 DAT against Lolium rigidum (resistant biotype): 0%
[1]; 4 g of a.i./ha
  Herbicidal action 14 DAT against Lolium rigidum (resistant biotype): 40% and 60%
  Herbicidal action in [%] 14 DAT against Lolium rigidum (resistant biotype): 60%
  Herbicidal action in [%] 28 DAT against Lolium rigidum (resistant biotype): 40%
[1]; 16 g of a.i./ha
  Herbicidal action 28 DAT against Lolium rigidum (resistant biotype): 80%
  Herbicidal action in [%] 28 DAT against Lolium rigidum (resistant biotype): 80%
[1]; (Z61) post-emergence, g of a.i./ha: 4, 1, 270, 90, 4 + 270, 1 + 90, 1 g of a.i./ha
  Herbicidal action 28 DAT against Lolium rigidum (resistant biotype): 0%
[1]; (Z61) post-emergence, g of a.i./ha: 4, 1, 270, 90, 4 + 270, 1 + 90, 4 g of a.i./ha
  Herbicidal action 28 DAT against Lolium rigidum (resistant biotype): 10%
Kochia scoparia
  Herbicidal action 21 DAT against Kochia scoparia: 30%
Alopecurus myosuroides; 1 g of a.i./ha
  Herbicidal action 14 DAT against Alopecurus myosuroides: 15%
  Herbicidal action 28 DAT against Alopecurus myosuroides: 15%
  Herbicidal action in [%] 14 DAT against Alopecurus myosuroides: 30%
  Herbicidal action in [%] 28 DAT against Alopecurus myosuroides: 10%
Alopecurus myosuroides; 4 g of a.i./ha
  Herbicidal action 28 DAT against Alopecurus myosuroides: 50% and 60%
  Herbicidal action in [%] 14 DAT against Alopecurus myosuroides: 75%
  Herbicidal action in [%] 28 DAT against Alopecurus myosuroides: 60%
Digitaria horizontalis; (Z61) post-emergence, g of a.i./ha: 200, 100, 100 + 200
  Herbicidal action 28 DAT against Digitaria horizontalis: 96%
Digitaria horizontalis; A3/Asulam, first sub-table, post-emergence, g of a.i./ha by row: 720, 100, 100 + 720
  Herbicidal action 28 DAT against Digitaria horizontalis: 96%
Digitaria horizontalis; A3/Asulam, second sub-table, post-emergence, g of a.i./ha by row: 720, 100, 100 + 720
  Herbicidal action 28 DAT against Digitaria horizontalis: 87%
Veronica hederifolia; 1 g of a.i./ha
  Herbicidal action in [%] 14 DAT against Veronica hederifolia: 10%
Veronica hederifolia; 4 g of a.i./ha
  Herbicidal action in [%] 14 DAT against Veronica hederifolia: 30%
Veronica hederifolia; 16 g of a.i./ha
  Herbicidal action 14 DAT against Veronica hederifolia: 40%
Veronica hederifolia; g of a.i./ha: 16, 270, 16 + 270
  Herbicidal action 14 DAT against Veronica hederifolia: 40%
Brachiaria decumbens
  Herbicidal action 28 DAT against Brachiaria decumbens: 87%
Abutilon theophrasti; 1.7 g of a.i./ha
  Herbicidal action 21 DAT [%] against Abutilon theophrasti: 10%
  Herbicidal action 21 DAT against Abutilon theophrasti: 0%
Abutilon theophrasti; 5 g of a.i./ha
  Herbicidal action 21 DAT against Abutilon theophrasti: 30%
Abutilon theophrasti; 15 g of a.i./ha
  Herbicidal action 21 DAT [%] against Abutilon theophrasti: 35%
